Measurements reported in ChEMBL document CHEMBL5107956, “Natural products from mangrove sediments-derived microbes: Structural diversity, bioactivities, biosynthesis, and total synthesis” (Eur J Med Chem, 2022).
In brackets after ≈: the same amount, converted by molar mass. Blank lines part the entries; values can stand above or below the compound they belong to.

How the values were obtained:
[1] = Antioxidant activity assessed as free radical scavenging activity by DPPH assay; type: functional
[2] = test system: Rhizoctonia solani; assay: Antifungal activity against Rhizoctonia solani assessed as inhibition of fungal growth at 10 ug/ml relative to control; type: functional
[3] = Antioxidant activity assessed as DPPH radical scavenging activity incubated for 30 mins under dark condition; type: functional
[4] = test system: HepG2 2.2.15; assay: Antiproliferative activity against human HepG2.2.15 cells assessed as cell growth inhibition by MTT assay; type: functional, cell-based
[5] = test system: JeKo-1; assay: Cytotoxicity against human JeKo-1 cells assessed as cell growth inhibition by MTT assay; type: functional, cell-based
[6] = test system: Pseudopestalotiopsis theae; assay: Antifungal activity Pestalotiopsis theae assessed as fungal growth inhibition per disc measured after 7 days by paper disc dilution method; type: functional, organism-based
[7] = test system: Vibrio splendidus; assay: Antibacterial activity against Vibrio splendidus as bacterial growth inhibition; type: functional, organism-based
[8] = biological target: Prostaglandin G/H synthase 2 (Homo sapiens) (UniProt P35354); assay: Inhibition of COX2 (unknown origin) at 20 nM relative to control
[9] = test system: Staphylococcus aureus; assay: Antibacterial activity against Staphylococcus aureus ATCC 25923 assessed as bacterial growth inhibition; type: functional, organism-based
[10] = test system: HEp-2; assay: Cytotoxicity against human HEp-2 cells assessed as cell growth inhibition by MTT assay; type: functional, cell-based
[11] = test system: HepG2; assay: Cytotoxicity against human HepG2 cells assessed as cell growth inhibition by MTT assay; type: functional, cell-based
[12] = test system: Vibrio anguillarum; assay: Antibacterial activity against Vibrio anguillarum assessed as cell growth inhibition; type: functional
[13] = test system: Aeromonas hydrophila; assay: Antibacterial activity against Aeromonas hydrophila assessed as cell growth inhibition; type: functional
[14] = test system: Vibrio harveyi; assay: Antibacterial activity against Vibrio harveyi assessed as cell growth inhibition; type: functional

Prostaglandin G/H synthase 2 (Homo sapiens), sequence (P35354 whole entry, looked up): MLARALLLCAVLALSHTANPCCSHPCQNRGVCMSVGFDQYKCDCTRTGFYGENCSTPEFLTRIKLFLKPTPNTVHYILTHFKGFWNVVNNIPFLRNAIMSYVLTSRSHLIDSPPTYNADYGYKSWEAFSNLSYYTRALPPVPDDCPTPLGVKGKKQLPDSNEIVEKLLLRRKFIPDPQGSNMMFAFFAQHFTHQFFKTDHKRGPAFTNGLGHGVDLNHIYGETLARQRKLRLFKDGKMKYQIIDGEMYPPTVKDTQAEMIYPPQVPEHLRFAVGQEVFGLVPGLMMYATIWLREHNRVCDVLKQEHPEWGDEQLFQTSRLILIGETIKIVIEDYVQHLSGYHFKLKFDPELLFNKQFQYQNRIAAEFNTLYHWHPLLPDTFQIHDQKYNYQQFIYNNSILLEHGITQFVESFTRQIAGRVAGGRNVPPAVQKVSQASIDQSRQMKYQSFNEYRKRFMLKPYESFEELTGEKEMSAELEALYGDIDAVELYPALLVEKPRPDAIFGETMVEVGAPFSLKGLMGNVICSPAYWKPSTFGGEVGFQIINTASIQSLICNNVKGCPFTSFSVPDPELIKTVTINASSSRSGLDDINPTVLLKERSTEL

Structure (SMILES): Cc1oc2cc3cc(O)cc(O)c3c(O)c2c(=O)c1C
- inhibition at 10 µg/mL [2]: 50.2%

Structure (SMILES): CC1=CCC[C@@]2(C)C=C3OC(=O)C(CO)=C3C[C@H]12
- IC50 [5]: 8.4 µM

Structure (SMILES): COC(=O)/C=C/C1=CC(=O)CC1O (centres undefined)
- IC50 [6]: 125 µg

Structure (SMILES): CC(C)=CCc1cc(C[C@@]2(C(=O)O)OC(=O)C(OC(C)(C)[C@@H](O)Cc3cc(C[C@@]4(C(=O)O)OC(=O)C(O)=C4c4ccc(O)cc4)ccc3O)=C2c2ccc(O)cc2)ccc1O
- IC50 [7]: 3.7 µM
- inhibition [8]: 76.5%
- IC50 [9]: 1.3 µM

Structure (SMILES): COC(=O)c1cc(O)cc2oc3cc(C)c(O)cc3c(=O)c12
- IC50 [10]: 8 µg/mL (≈ 26.6 µM)
- IC50 [11]: 9 µg/mL (≈ 30 µM)

Structure (SMILES): C[C@H](O)/C=C1/C(=O)O[C@H]([C@@H](C)O)[C@@H]1O
- MIC [12]: 8 µg/mL (≈ 39.6 µM)
- MIC [13]: 8 µg/mL (≈ 39.6 µM)
- MIC [14]: 8 µg/mL (≈ 39.6 µM)

Now from value to compound:

- IC50 [1]: 1.23 µg/mL (≈ 3.86 µM)
Structure (SMILES): COc1cc(O)cc(C2OC(=O)c3c(O)cc(C)c(O)c32)c1O (centres undefined)

- IC50 [3]: 25.7 µM
Structure (SMILES): COc1c(O)c2c(c(O)c1CO)C(=O)OCC2

- IC50 [4]: 4.63 µM
Structure (SMILES): C[C@@H](O)Cc1cc(O)c2c(c1)C(=O)c1c(O)c(O)cc(O)c1C2=O
